Data as given in ChEMBL document CHEMBL4823268 (Eur J Med Chem, 2021).
The source made the active and inactive calls. The rule behind the calls is not given here.

Experiments:
[1] = Permeability of compound by PAMPA-BBB assay
[2] = molecular target: T1, Glycogen synthase kinase-3 beta (Homo sapiens, UniProt P49841); assay: biochemical; format: cell-based, Sf9
Target sequence in this assay (P49841 whole entry): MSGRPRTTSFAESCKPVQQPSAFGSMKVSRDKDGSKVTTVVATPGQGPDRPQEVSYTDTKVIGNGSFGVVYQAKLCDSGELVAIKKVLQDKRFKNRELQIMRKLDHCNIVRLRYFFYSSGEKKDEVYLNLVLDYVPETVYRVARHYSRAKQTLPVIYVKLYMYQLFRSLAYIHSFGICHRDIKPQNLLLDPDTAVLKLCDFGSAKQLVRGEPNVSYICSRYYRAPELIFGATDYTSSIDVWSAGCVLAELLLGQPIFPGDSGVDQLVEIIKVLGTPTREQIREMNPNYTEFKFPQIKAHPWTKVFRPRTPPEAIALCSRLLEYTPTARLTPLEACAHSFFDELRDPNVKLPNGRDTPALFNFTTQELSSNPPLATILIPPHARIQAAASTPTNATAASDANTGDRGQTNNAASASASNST

Mus musculus [3] = assay: Improvement in learning and spatial memory in mouse harboring APP/PSI/Tau assessed as improvement in trajectory at 20 mg/kg, po for 30 consecutive days and studied for 5 days by Morris water maze test relative to control; format: functional, organism-based; conditions: time 30.0 day
[4] = molecular target: T1, Glycogen synthase kinase-3 beta; assay: Inhibition of GSK3beta in human SH-SY5Y cells assessed as increase in OKA-induce GSK3beta at serine 9 hyperphosphorylation by Western blot analysis; format: cell-based
Target sequence in this assay (P49841 whole entry, looked up): as the sequence (P49841 whole entry) above

Mus musculus [5] = assay: Cognitive enhancing effect in mouse harboring APP/PSI/Tau assessed as improvement in number of crossing the virtual platform at 10 to 30 mg/kg, po for 30 consecutive days and studied for 5 days by Morris water maze test relative to control; format: functional, organism-based; conditions: dose 10-30 mg/kg, time 30.0 day
[6] = molecular target: T1, Glycogen synthase kinase-3 beta; assay: Inhibition of GSK3beta in human SH-SY5Y cells assessed as decrease in OKA-induce tau-S396 hyperphosphorylation at 250 to 1000 nM by Western blot analysis; format: cell-based; conditions: dose 250-1000 nM
Target sequence in this assay (P49841 whole entry, looked up): as the sequence (P49841 whole entry) above

[7] = molecular target: T1, Glycogen synthase kinase-3 beta; assay: Inhibition of GSK3beta phosphorylation expression in human SH-SY5Y cells at 250 to 1000 nM by Western blot analysis; format: cell-based; conditions: dose 250-1000 nM
Target sequence in this assay (P49841 whole entry, looked up): as the sequence (P49841 whole entry) above

[8] = Neurotoxicity against human SH-SY5Y cells assessed as cell viability at 15 to 20 uM measured for 36 to 72 hrs by MTT assay; format: cell-based; conditions: dose lower 15 µM, time lower 36 hrs, dose upper 20 µM, time upper 72 hrs
L02 = assay: Cytotoxicity against human HL7702 cells assessed as cell viability measured at 5 to 20 uM for 24 to 72 hrs by MTT assay; format: cell-based; conditions: l02, 20 µM, dose lower 5 µM, time lower 24 hrs, dose upper 20 µM, time upper 72 hrs
[9] = molecular target: T1, Glycogen synthase kinase-3 beta; assay: Inhibition of human full length GSK3beta expressed in baculovirus in Sf9 insect cells assessed as enzyme activity using YRRAAVPPSPSLSRHSSPHQ(pS)EDEEE as substrate at 0.14 uM by ADP-Glo kinase assay relative to control; set-up: scale not given: the % may be the effect or the level left
Target sequence in this assay (P49841 whole entry, looked up): as the sequence (P49841 whole entry) above

[10] = molecular target: T1, Glycogen synthase kinase-3 beta; assay: Inhibition of human full length GSK3beta expressed in baculovirus in Sf9 insect cells assessed as enzyme activity using YRRAAVPPSPSLSRHSSPHQ(pS)EDEEE as substrate at 0.7 uM by ADP-Glo kinase assay relative to control; set-up: scale not given: the % may be the effect or the level left
Target sequence in this assay (P49841 whole entry, looked up): as the sequence (P49841 whole entry) above

SH-SY5Y = assay: Reduction in neurofibrillary tangles formation in OKA-treated human SH-SY5Y cells at 250 to 1000 nM by Western blot analysis; format: functional, cell-based; conditions: dose 250-1000 nM
[11] = Neurotoxicity against human SH-SY5Y cells assessed as cell viability at 10 uM measured for 24 to 72 hrs by MTT assay; format: cell-based; conditions: time 24-72 hrs
Mus musculus [12] = assay: Improvement in learning and spatial memory in mouse harboring APP/PSI/Tau assessed as decrease in escape latency at 10 to 30 mg/kg, po for 30 consecutive days and studied for 5 days by Morris water maze test relative to control; format: functional, organism-based; conditions: dose 10-30 mg/kg, time 30.0 day
[13] = molecular target: Dual specificity tyrosine-phosphorylation-regulated kinase 1A (Homo sapiens) (UniProt Q13627); assay: Inhibition of DYRK1A in human SH-SY5Y cells assessed as decrease in OKA-induce DYRK1A-Tyr321/27 hyperphosphorylation at 250 to 1000 nM by Western blot analysis; format: cell-based; conditions: dose 250-1000 nM
Mus musculus [14] = assay: Cognitive enhancing effect in mouse harboring APP/PSI/Tau assessed as improvement in time spent in the platform quadrant at 10 to 30 mg/kg, po for 30 consecutive days and studied for 5 days by Morris water maze test relative to control; format: functional, organism-based; conditions: dose 10-30 mg/kg, time 30.0 day
Mus musculus [15] = assay: Improvement in learning and spatial memory in mouse harboring APP/PSI/Tau assessed as improvement in trajectory at […], po for 30 consecutive days and studied for 5 days by Morris water maze test relative to control; format: functional, organism-based; conditions: time 5.0 day
[16] = molecular target: Dual specificity tyrosine-phosphorylation-regulated kinase 1A (Rattus norvegicus, UniProt Q63470); assay: Inhibition of rat recombinant DYRK1A expressed in Escherichia coli using RRRFRPASPLRGPPK as substrate by ADP-Glo kinase assay

| SMILES | Papp [1] [×10⁻⁶ cm/s] | IC50 [2] [µM] | other results |
| --- | --- | --- | --- |
| Cn1c(=O)c2c(ncn2C)n(C)c1=O [CAFFEINE] | 3.2 |  |  |
| COc1ccc2c(c1)[nH]c1cnc(C)cc12 |  | > 10 |  |
| O=C(Nc1cc2c(cn1)[nH]c1cc(F)ccc12)C1CC1 |  | > 10 |  |
| COc1ccc(-c2ccc3c(c2)[nH]c2c(NC(=O)C4CC4)nccc23)cc1 |  | > 10 |  |
| COc1ccc(-c2ccc3c(c2)[nH]c2cnc(NC(=O)C4CC4)cc23)cc1 |  | > 10 |  |
| O=C(Nc1cc2c(cn1)[nH]c1cc(C(F)(F)F)ccc12)C1CC1 |  | > 10 |  |
| O=C(Nc1nccc2c1[nH]c1cc(C(F)(F)F)ccc12)C1CC1 |  | > 10 |  |
| COc1ccc2c(c1)[nH]c1c(C)nccc12 [HARMINE] | 44.6 |  | Activity (Mus musculus [3]): Active |
| COC(=O)c1ccc2c(c1)[nH]c1cnc(NC(=O)C3CC3)cc12 |  | > 10 |  |
| NC(=O)c1ccc2c(c1)[nH]c1c(NC(=O)C3CC3)nccc12 | 0.7 | 0.2 |  |
| N#Cc1ccc2c(c1)[nH]c1c(NC(=O)C3CC3)nccc12 |  | > 10 |  |
| N#Cc1ccc2c(c1)[nH]c1cnc(NC(=O)C3CC3)cc12 |  | > 10 |  |
| O=C(Nc1cc2c(cn1)[nH]c1cc(Cl)ccc12)C1CC1 |  | > 10 |  |
| O=C(Nc1nccc2c1[nH]c1cc(F)ccc12)C1CC1 | 33.3 | 4.8 |  |
| O=C(Nc1cc2c(cn1)[nH]c1cc(-c3cccnc3)ccc12)C1CC1 |  | > 10 |  |
| O=C(Nc1cc2c(cn1)[nH]c1cc(OC(F)(F)F)ccc12)C1CC1 |  | > 10 |  |
| COc1ccc2c(c1)[nH]c1c(NC(=O)C3CC3)nccc12 | 15.6 | 0.144 |  |
| O=C(Nc1nccc2c1[nH]c1cc(-c3ccccc3)ccc12)C1CC1 |  | 6.59 |  |
| COC(=O)c1ccc2c(c1)[nH]c1c(NC(=O)C3CC3)nccc12 | 16.5 | 0.071 | Activity [4]: Dose-Dependent Effect; Activity (Mus musculus [5]): Active; Activity [6]: Active; Activity [7]: Active; Activity [8]: Non-Toxic; Activity (L02): Toxic; Activity [9]: 10%; Activity [10]: 1%; Activity (SH-SY5Y): Active; Activity [11]: Non-Toxic; Activity (Mus musculus [12]): Active; Activity [13]: Active; Activity (Mus musculus [14]): Active |
| O=C(Nc1nccc2c1[nH]c1cc(Cl)ccc12)C1CC1 | 21.5 | 5.15 |  |
| O=C(Nc1nccc2c1[nH]c1cc(-c3cccnc3)ccc12)C1CC1 |  | > 10 |  |
| Clc1cccc(Cl)c1N=C1NCCN1 [CLONIDINE] | 4 |  |  |
| COc1ccc2c(c1)[nH]c1cnc(NC(=O)C3CC3)cc12 |  | 8.1 |  |
| O=Cc1ccc2c(c1)[nH]c1c(NC(=O)C3CC3)nccc12 | 14.3 | 0.4 |  |
| [Cl-].[Li+] |  |  | Activity (Mus musculus [15]): Active |
| O=C(Nc1nccc2c1[nH]c1cc(OC(F)(F)F)ccc12)C1CC1 |  | 7.62 |  |
| NC(=O)c1ccc2c(c1)[nH]c1cnc(NC(=O)C3CC3)cc12 |  | > 10 |  |
| CN[C@@H]1C[C@H]2O[C@@](C)([C@@H]1OC)n1c3ccccc3c3c4c(c5c6ccccc6n2c5c31)C(=O)NC4 [STAUROSPORINE] |  |  | IC50 [16]: 0.012 µM |
| O=Cc1ccc2c(c1)[nH]c1cnc(NC(=O)C3CC3)cc12 |  | > 10 |  |
